How the values were obtained:
AQP 4 [1] = biological target: T1, AQP 4 (Mus musculus, UniProt P55088); assay: AQP 4 function promotion verification test using Alzheimer's disease model mice (H2 17O dynamics in brain by MRI); assay type: in vivo; conditions: 5×FAD Alzheimer's disease model mice, 50 mg/kg orally for 3 months, MRI (FIG. 3)
T1 construct: from tissue; host or cells: brain of living B6SJL mice
Experimental: (§1) 5×FAD Alzheimer's disease model mice were bred until 4 months old. Next, the compound 1A (50 mg/kg) or the compound 2A (200 mg/kg) prepared in Production Example 1 were orally administered to the mice for 3 months. Further, a non-administration group was also prepared as the control.
With respect to the group of mice to which the compound 1A was administered and the non-administration group, images showing the dynamics of H2^17O in the brain of each mouse (cortex and CSF) at 8 second intervals were recorded until 70 seconds after the administration using MRI according to the same method as in Test Example 1. In FIG. 3, “Vehicle” indicates a non-administration group and “Compound 1A” indicates a compound 1A administration group. Further, relative values (CSF/Cortex) with respect to the cortex are also shown.

senile plaques (Aβ) = assay: Immunostaining of brain slices and quantification of senile plaques in Alzheimer's disease model mice; assay type: in vivo, mouse; conditions: 5×FAD mice; for increase in senile plaques formed of Aβ 42: oral administration for 3 months (compound 1A 50 mg/kg, compound 2A 200 mg/kg), cerebral cortex (FIGS. 4A, 4B)
Experimental: as §1
Subsequently, the brain was extracted from each mouse, paraffin-embedded slices (respectively with a thickness of 4 μm) were prepared using brain tissues, and immunohistochemical staining was performed according to the following method.
First, the slices were subjected to a formic acid treatment, and overnight incubation was performed at 4° C. using Mouse monoclonal Anti-Human Amyloid J3 (Total Aj3) (10027, IBL, Japan), [2] Rabbit polyclonal Anti-Human Amyloid J31-40 (AJ340) (18580, IBL, Japan), or [3] Rabbit polyclonal Anti-Human Amyloid J31-42 (AJ342) (18582, IBL, Japan) as primary antibodies. Further, the dilution ratios of antibodies were respectively [1]×50, [2]×200, and [3]×200. After the secondary antibodies were applied, the antibodies were visualized according to a polymer method using Histofine DAB substrate kit (NICHIREI CORPORATION, JAPAN).
Next, the tissue images of the stained samples were imaged using a bright field optical microscope (Olympus Corporation, BX53, DP73), and the images were stored according to the TIFF format (2400×1800 pixels, 3.5×2.6 mm, 2.13 μm^2/pixel). Each image was analyzed in the following manner using a particle analysis function of the image analysis processing software (Aquacosmos, Hamamatsu Photonics K.K., Japan). ROI was set as the cerebral cortex, particles were extracted according to a binarization method, and the area (the number of pixels) of each extracted particle was automatically calculated and output. In output particle data, particles with an area of 10 pixels or less were removed as noise and quantified.

[2] = biological target: T2, human AQP 4 (hAQP 4)-M23 isoform (Homo sapiens, UniProt P55087); assay: In vitro assay of oocyte volume under hypotonic condition, Xenopus laevis oocytes expressing AQP 4; assay type: cell-based; conditions: 20 μM compound, oocytes injected with hAQP 4-M23 mRNA, hypotonic reagent, up to 250 seconds, vs Blank (FIG. 1)
T2 construct: expressed in transfected cells; host or cells: Xenopus laevis oocytes, microinjected with hAQP4-M23 mRNA (pSP35T vector)
Experimental: A Modified Barth's Medium (MBS) was provided to contain NaCl (88 mM), KCl (1 mM), HEPES (10 mM), MgSO4 (0.82 mM), NaHCO3 (2.4 mM), CaCl2 (0.91 mM), Ca(NO3)2 (0.33 mM), and gentamicin (100 mg/L), prepared to have a pH of 7.5, and used within one week after the preparation.
Isolation, preparation, and transfection of the oocytes of a Xenopus laevis were performed using a method described in the reference (Sakimura, et al., FEBS Lett., 272, 73 to 80, 1990.). Specifically, the oocytes were extracted from a female adult of a Xenopus laevis (weight of 150 g) and transferred to an MBS. Next, the oocytes were partially transferred to an isolation buffer solution, and the theca folliculi was manually removed so that the oocytes were exposed. […]
Next, the transferred oocytes were imaged using an SZX 16 microscope (manufactured by Olympus Corporation) connected to a DP 26 digital camera (manufactured by Olympus Corporation). […] A Hypotonic reagent (1000 μL) was added, and an assay initial image (t=3 seconds) and images at 15 second intervals of were recorded up to 250 seconds after the administration. […]
Subsequently, the images were transferred to a personal computer, and the region of each oocyte was evaluated using NIH Image-J. The value of the cross-sectional area of each oocyte in a plurality of equally determined measurement times was converted into a volume assumed to be spherical. […]

AQP 4 [3] = biological target: T1, AQP 4; assay: AQP 4 function promotion verification test using mice (H2 17O dynamics in brain by MRI); assay type: in vivo; conditions: normal male B6SJL-Tg mice, 8 weeks old, intraperitoneal administration, MRI until 70 seconds (FIG. 2B)
Experimental: Normal male B6SJL-Tg mice obtained from Jackson Laboratory were bred until 8 weeks old. Next, indomethacin as a comparative example, the compound 2A prepared in Production Example 1, and physiological saline as the control were intraperitoneally administered to respectively five mice.
Thereafter, 0.2 mL of typical physiological saline containing 20% H2^17O was administered to the right femoral vein of each mouse through the PE10 tube inserted thereinto using an automatic syringe at 0.04 mL/sec. Next, images showing the dynamics of H2^17O in the brain of each mouse ((cortex) and the cerebrospinal fluid (CSF)) at 8 second intervals were recorded until 70 seconds after the administration using magnetic resonance imaging (MRI). The results are shown in FIG. 2A (administration of indomethacin) and FIG. 2B (administration of compound 2A). FIGS. 2A and 2B show relative values (CSF/Cortex) of CSF with respect to the cortex. In FIGS. 2A and 2B, “Vehicle” indicates a non-administration control group, “Indomethacin” indicates an indomethacin administration group, and “Compound 2A” indicates a compound 2A administration group.

T1 sequence (P55088 whole entry): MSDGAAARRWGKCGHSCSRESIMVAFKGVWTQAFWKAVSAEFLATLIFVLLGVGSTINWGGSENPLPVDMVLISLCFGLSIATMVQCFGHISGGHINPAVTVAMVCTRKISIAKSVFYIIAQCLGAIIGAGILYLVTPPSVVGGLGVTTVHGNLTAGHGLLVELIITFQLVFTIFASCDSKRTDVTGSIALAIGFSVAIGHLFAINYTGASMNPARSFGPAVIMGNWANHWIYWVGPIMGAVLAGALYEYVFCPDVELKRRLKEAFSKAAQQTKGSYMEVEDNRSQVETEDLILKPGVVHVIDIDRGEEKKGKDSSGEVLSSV
T2 sequence (P55087 23-323): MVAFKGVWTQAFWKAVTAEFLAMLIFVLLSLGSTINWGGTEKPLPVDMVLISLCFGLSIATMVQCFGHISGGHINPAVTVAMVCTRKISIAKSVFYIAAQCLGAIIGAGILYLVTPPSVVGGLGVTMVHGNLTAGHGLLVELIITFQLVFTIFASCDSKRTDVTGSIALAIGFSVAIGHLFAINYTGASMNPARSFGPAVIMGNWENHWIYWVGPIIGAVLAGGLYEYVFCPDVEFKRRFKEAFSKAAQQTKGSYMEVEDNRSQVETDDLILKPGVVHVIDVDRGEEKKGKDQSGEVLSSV

AQP 4 function (H2 17O dynamics, CSF/Cortex) (AQP 4 [1])	Structure (SMILES)	increase in senile plaques (total Aβ, Aβ 40, Aβ 42 staining) (senile plaques (Aβ); 50 mg/kg orally for 3 months, cerebral cortex (FIGS. 5A-7B))	increase in senile plaques formed of Aβ 42 (senile plaques (Aβ))	volume of the oocyte [2]	numerical values of CSF/Cortex (H2 17O dynamics; water discharge, flow of cerebrospinal fluid) (AQP 4 [3])
markedly promoted	N=C(N)NCCS(=O)(=O)O [compound 1A, 2-guanidino-1-ethanesulfonic acid]	can be suppressed	can be suppressed		
	O=S(=O)(Nc1ncccc1OCc1ccccc1)c1ccccc1 [compound 2A, 2-(phenylsulfonamido)-3-benzyloxypyridine]		can be suppressed	significantly increased	decreased

Source: patent US10632084B2, “Aquaporin 4 function promotor and pharmaceutical composition for neurological disorders” (NIIGATA UNIVERSITY, priority 2016, dated 2020)
